This experiment has as its target T1, CXCR7 (Homo sapiens, UniProt P25106).
T1 construct: host or cells: CHO (PathHunter CHO-CXCR7 β-arrestin cells)
Nature of the experiment: CXCR7 β-arrestin recruitment assay (PathHunter CHO-CXCR7, agonistic assay). Type of experiment: cell-based. The conditions noted are these: CHO CXCR7 β-arrestin cells, agonistic assay, 90 min at 37° C., chemiluminescence; read-out: β-Arrestin EC50. On the procedure:
Lyophilized peptides were weighed on a Microbalance (Mettler MX5) and dissolved in DMSO to a final concentration of 10 mM unless otherwise stated. Stock solutions were kept at +4° C., and protected from light.
2.2 CXCR7 β-Arrestin Recruitment Assay
The PathHunter CHO-CXCR7 (DiscoverX) assay was performed according to the manufacturer's protocol. In brief, CHO CXCR7 β-arrestin cells were seeded at a density of 5000 cells per well in 40 μl of F12 medium in a 96-half volume well black culture plate and incubated overnight at 37° C. in a humidified atmosphere with 5% CO2. The next day, serial dilutions of PEM compounds have been prepared in DMSO and subsequently diluted in HBSS buffer containing 0.1% BSA.
For agonistic assay, 10 μl of compound solution or a solution of stromal cell-derived factor-1 (SDF-1) as positive control was added to the cells with a final DMSO concentration of 1% (v/v). The plate was incubated for 90 min at 37° C. in 5% CO2 incubator with gentle shaking (300 rpm) before addition of 40 ul of detection reagent per well. Reaction was developed 90 min at room temperature in the dark with shaking, and chemiluminescence was measured with a Topcount (Perkin Elmer) luminescence counter.
(Recruitment of arrestin is a read-out of receptor activation apart from second messengers.)

4 molecules from patent US8629112B2, “Template-fixed peptidomimetics with CXCR7 modulating activity” (priority 2010, dated 2014) can be followed below.

Structures are written as SMILES. Square brackets hold non-standard residues; d marks the D form. Peptide text beside a SMILES is read from it. Aze = O=C(O)[C@@H]1CCN1

T1 sequence (P25106 whole entry): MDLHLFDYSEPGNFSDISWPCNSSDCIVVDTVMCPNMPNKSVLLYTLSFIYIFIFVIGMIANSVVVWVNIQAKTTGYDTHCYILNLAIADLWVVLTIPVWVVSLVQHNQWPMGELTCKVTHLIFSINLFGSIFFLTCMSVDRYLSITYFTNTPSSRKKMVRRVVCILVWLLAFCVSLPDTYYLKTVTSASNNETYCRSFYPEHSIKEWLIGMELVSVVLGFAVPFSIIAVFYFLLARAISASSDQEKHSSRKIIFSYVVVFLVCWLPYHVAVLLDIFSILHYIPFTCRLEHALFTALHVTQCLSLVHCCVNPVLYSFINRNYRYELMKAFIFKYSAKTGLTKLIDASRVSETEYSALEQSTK

On to `CC[C@H](C)[C@@H]1NC(=O)[C@@H](Cc2c[nH]cn2)NC(=O)[C@H](Cc2c[nH]c3ccccc23)NC(=O)[C@@H]2CCN2C(=O)[C@H]2CCCN2C(=O)[C@H](CCCNC(=N)N)NC1=O` [compound 47, cyclo(-Trp-^DHis-Ile-Arg-^DPro-Azt-)] (cyclo([Aze]W[dH]IR[dP])), for which the EC50 came out at 344.5 ± 0.6 nM.
Take `N=C(N)NCCC[C@@H]1NC(=O)[C@H](Cc2c[nH]c3ccccc23)NC(=O)[C@@H](Cc2c[nH]cn2)NC(=O)[C@H](Cc2c[nH]c3ccccc23)NC(=O)[C@@H]2CCN2C(=O)[C@H]2CCCN2C1=O` [compound 48, cyclo(-Trp-^DHis-Trp-Arg-^DPro-Azt-)] (cyclo([Aze]W[dH]WR[dP])): the EC50 stood at 342 ± 46.8 nM.
For `CC[C@H](C)[C@@H]1NC(=O)[C@@H](CCCNC(=N)N)NC(=O)[C@H](Cc2c[nH]c3ccccc23)NC(=O)[C@@H]2CCN2C(=O)[C@H]2CCCN2C(=O)[C@H](CCCNC(=N)N)NC1=O` [compound 50, cyclo(-Trp-^DArg-Ile-Arg-^DPro-Azt-)] (cyclo([Aze]W[dR]IR[dP])), the EC50 was 47.7 ± 21.9 nM.
For `N=C(N)NCCC[C@@H]1NC(=O)[C@H](Cc2c[nH]c3ccccc23)NC(=O)[C@@H](CCCNC(=N)N)NC(=O)[C@H](Cc2c[nH]c3ccccc23)NC(=O)[C@@H]2CCN2C(=O)[C@H]2CCCN2C1=O` [compound 51, cyclo(-Trp-^DArg-Trp-Arg-^DPro-Azt-)] (cyclo([Aze]W[dR]WR[dP])), the EC50 stood at 170 ± 22.5 nM.

As a reminder, the EC50 is the midpoint of the concentration-response curve.
